{"source": "patent US20110207807A1", "about": "“NEW USE FOR HOMOISOFLAVONE OR A SALT THEREOF” (Catholic University Industry Academy Cooperation Foundation, priority 2008, published 2011)", "key": {"[1]": {"test_system": "intracellular reactive oxygen species (ROS)", "assay": "Intracellular ROS induced by UV radiation (DCFH-DA fluorescence microscopy)", "format": "cell-based, human", "details": "HaCaT cells, 1 μg/mL, UV 100 J/m^2, compared to UV only (FIG. 1)", "protocol": "Human keratinocyte cell line HaCaT cells (acquired from Professor N. Fusenig of the German Cancer Research Center) were inoculated on a 60-mm culture dish (5×10^5 cells; 1×10^6 cells for a 100-mm culture dish) and cultured for 24 hours in Dulbecco's modified Eagle's medium (DMEM) containing 10% fetal bovine serum (FBS).\nThen, after treating with homoisoflavanone of Chemical Formula 1 (R=OCH3) at a concentration of 1 μg/mL for 1 hour, the cells were washed 3 times with phosphate buffered saline (PBS). In order to generate reactive oxygen species (ROS), the cells were irradiated with UV at 100 J/m^2 using a UV lamp (FSX 24 T12/UVB/HO, Pansol™, USA). Immediately after the UV radiation, the cells were washed again with PBS and further cultured for 4 hours in DMEM containing 1% FBS, while treating with homoisoflavanone at the same concentration. Then, after treating for 30 minutes in Hank's balanced salt solution (HBSS, BioWhittaker, Cambrex, USA) with 25 μM 2,7-dichlorofluorescein diacetate (DCFH-DA), the cells were washed 3 times with PBS.\nThereafter, the ROS induced by UV were measured using a fluorescence microscope (Carl Zeiss, USA). Test groups were subdivided as follows: non-treated group—treated with neither UV nor homoisoflavanone; test group A—treated with homoisoflavanone only; control group—treated with UV only; test group B—treated with UV and homoisoflavanone."}, "cPLA2": {"test_system": "cPLA2", "assay": "UV-induced cPLA2 phosphorylation in HaCaT cells (Western blot)", "format": "cell-based, human", "details": "1 μg/mL, UV (FIG. 2b)", "protocol": "In order to identify the intracellular factors affecting COX-2 expression that are affected by homoisoflavanone, Western blotting was carried out in the same manner as in Example 2-1 except for treating with homoisoflavanone at 1 μg/mL, irradiating UV for 45 minutes and using rabbit anti-p-cytosolic phospholipase A2 (cPLA2) antibody, rabbit anti-cPLA2 antibody, rabbit anti-ERK antibody, rabbit anti-p-ERK antibody, rabbit anti-p38 antibody or rabbit anti-p-p38 antibody and using anti-rabbit IgG-HRP conjugation antibody (Zymed) as secondary antibody. Positive control groups were treated with 1 μM SB203580 (A.G. Scientific, Inc.) as p38 inhibitor or 10 μM PD98059 (A.G. Scientific, Inc.) as MEK 1 inhibitor instead of homoisoflavanone."}, "leukotriene B4": {"test_system": "leukotriene B4", "assay": "Release of leukotriene B4 induced by PMA and A23187 in HMC-1 (enzyme immunoassay)", "format": "cell-based, human", "text": "Phorbol 12-myristate 13-acetate and A23187 lead to degranulation of human mast cells (HMC), causing the mast cells to release not only their histamine or serotonin but also newly produced inflammatory factors such as pro-inflammatory cytokines, prostaglandins and leukotrienes. It was investigated whether homoisoflavanone has anti-inflammatory effect in mast cells as in Examples 4 and 5. In order to investigate the effect of homoisoflavanone on the release of leukotriene induced by phorbol 12-myristate 13-acetate and A23187 in HMC-1, 1×10^6 HMC-1 cells were inoculated on a 100-mm culture dish and cultured in Iscove's modified Dulbecco's medium (IMDM, GIBCO) containing 10% FBS for 48 hours. Then, after treating with homoisoflavanone at 2 μg/mL or with mizolastine at 10 μg/mL for comparison for 1 hour, the cells were treated with 50 nM phorbol 12-myristate 13-acetate and 1 μM A23187 to induce release of leukotriene, and then further cultured for 21 hours. Then, the supernatant was collected and the quantity of released leukotriene B4 and C4 was measured using a leukotriene B4, C4 enzyme immunoassay kit (Sapphire Bioscience, Australia)."}, "5-LOX": {"test_system": "5-LOX", "assay": "5-LOX translocation to nuclear membrane induced by PMA and A23187 in HMC-1 (Western blot)", "format": "cell-based, human", "details": "HMC-1, 2 μg/mL, 50 nM PMA + 1 μM A23187, 5 hours (FIG. 7b)", "protocol": "In order to investigate the effect of homoisoflavanone on the migration of 5-LOX from the cytoplasm toward the nuclear membrane induced by phorbol 12-myristate 13-acetate and A23187 in human mast cells, 1×10^6 HMC-1 cells were inoculated on a 100-mm culture dish and cultured in IMDM containing 10% FBS for 48 hours. Then, after treating with homoisoflavanone at 2 μg/mL, the cells were treated with 50 nM phorbol 12-myristate 13-acetate and 1 μM A23187 to induce migration of 5-LOX to the nuclear membrane, and then further cultured for 5 hours.\nThen, in order to measure the migration of 5-LOX to the nuclear membrane, nuclear membrane proteins were isolated first. The cells of each test group were lysed with a buffer containing 10 mM HEPES/KOH, 0.1 mM EDTA, 10% NP-40, 10 mM KCl, 1 mM DTT, 0.5 mM PMSF and a protease inhibitor cocktail on ice for 10 minutes. After centrifugation, the supernatant (cytoplasmic proteins) was separated from the pellets (nuclear membrane proteins). The cytoplasmic proteins were kept at −80° C. and the pellets were lysed with a buffer containing 10 mM HEPES/KOH, 0.1 mM EDTA, 10% NP-40, 300 mM NaCl, 1 mM DTT, 0.5 mM PMSF and a protease inhibitor cocktail by shaking on ice for 30 minutes. Then, after centrifugation, the supernatant (nuclear proteins) was separated. […]"}, "T cells": {"test_system": "T cells", "assay": "Mixed lymphocyte reaction (MLR), T cell proliferation (3H-thymidine)", "format": "cell-based, mouse", "details": "one-way MLR, BALB/C and C57B/C splenocytes, concentration-dependent (FIG. 9)", "protocol": "Mixed lymphocyte reaction (MLR) was carried out in order to investigate the inhibitory effect of homoisoflavanone against T cell proliferation. When mouse immune cells of different MHC classes are cultured as mixed with each other, the T cells recognize those of different MHC class as antigens and thus proliferate. One-way MLR was performed as follows. Following excision of spleens from BALB/C and C57B/C mice, the cells were individualized and red blood cells were lysed. After irradiation of 25 Gy γ-rays to BALB/C splenocytes to inactivate the BALB/C T cells, the BALB/C and C57B/C splenocytes (5×10^5 and 2×10^5 cells each) were mixed in a U-bottom 96-well plate. After treating with homoisoflavanone, the cells were incubated for 56 hours in an incubator of 5% CO2 and 37° C. Then, after further adding ^3[H]-thymidine (0.5) to each well, the cells were further incubated for 16 hours. Thereafter, the cells of each well were collected on filter paper and then put in a vial. After adding a scintillation solution (2 mL), counts per minute (CPM) was measured using a β-counter."}}, "data": [{"smiles": "COc1ccc(CC2COc3cc(O)cc(O)c3C2=O)cc1O", "note": "(stereo not drawn) [homoisoflavanone]", "values": [{"measurement": "generation of intracellular ROS induced by UV", "setting": "[1]", "result": "decreased significantly"}, {"measurement": "phosphorylation of cPLA2", "setting": "cPLA2", "result": "inhibited"}, {"measurement": "leukotriene B4 release when treated alone, versus non-treated group", "setting": "leukotriene B4; HMC-1, homoisoflavanone 2 μg/mL or mizolastine 10 μg/mL alone, without PMA/A23187 (FIG. 6a)", "result": "no appreciable difference"}, {"measurement": "inhibition of release of leukotriene B4", "setting": "leukotriene B4; HMC-1, homoisoflavanone 2 μg/mL or mizolastine 10 μg/mL, 50 nM PMA + 1 μM A23187, 21 hours (FIG. 6a)", "result": 70, "unit": "%"}, {"measurement": "migration of 5-LOX toward the nuclear membrane", "setting": "5-LOX", "result": "inhibited"}, {"measurement": "concentrations at which proliferation of T cells was effectively inhibited", "setting": "T cells", "result": "≥ 0.25", "unit": "µg/mL"}]}]}
